The values below come from patent US9359589B2, “Use of at least one chelating agent introduced into the culture medium of magnetotactic bacteria in order to stimulate the growth thereof” (UNIVERSITE PIERRE ET MARIE CURIE (PARIS 6), priority 2011, dated 2016).

SMILES strings stand for the structures.

Assay [1] concerns Magnetospirillum magneticum. The assay is described as follows: Growth over time of magnetotactic bacteria in 10 ml tubes with chelating agent (absorbance, O.D. at 565 nm, D2-D9). The assay is classed as cell-based. As for the experimental part:
Cultures of Magnetospirillum magneticum were prepared as described in example 1. The bacteria were cultured in 10 milliliter tubes. A volume of 100 microliters of culture medium was inoculated, at time “D0” (Day 0), with 0.1×10^6 bacterial cells. The cultures in suspension were placed at ambient temperature (approximately 25° C.) and the growth of the bacteria over time was monitored by measuring O.D. at the wavelength of 565 nanometers.
The following series of culture samples were prepared: • samples of control culture, comprising the bacterial cells in the culture medium free of chelating agent; • a series of culture samples containing the chelating agent rhodamine B, at increasing concentrations of 0.4 μM, 4 μM, 40 μm and 400 μM; • a series of culture samples containing the chelating agent ascorbic acid, at increasing concentrations of 0.4 μM, 4 μM, 40 μM and 400 μM; • a series of culture samples containing the chelating agent erythrosine, at increasing concentrations of 0.4 μM, 40 μM and 400 μM; • a series of culture samples containing the chelating agent folic acid, at increasing concentrations of 0.4 μM, 4 μM, 40 μM and 400 μM;
The bacteria were cultured for 12 days in a tube and the absorbance over the whole of the spectrum ranging from 400 to 700 nanometers was measured, respectively, (i) on the second day (D2) after inoculation, (ii) on the third day (D3) after inoculation, (iii) on the fourth day (D4) after inoculation, (iv) on the seventh day (D7) after inoculation, (v) on the eighth day (D8) after inoculation and (vi) on the ninth day (D9) after inoculation. The magnetic moments of various suspensions of magnetotactic bacteria deposited on blotting paper were measured on days D7, D8 and D9.

The subject of assay [2] is Magnetospirillum magneticum. The assay is described as follows: Magnetic moment of suspensions of magnetotactic bacteria (SQUID, 500 Oe or 1000 Oe) on D7, D8, D9. Type of assay: cell-based. The method, then: The magnetic moment of various suspensions of magnetotactic bacteria deposited on blotting paper, under the application of a magnetic field of 500 Oe or of 1000 Oe, was also measured. The magnetic moment was measured for 10 ml of suspension of magnetotactic bacteria harvested at various days of growth, centrifuged, and then resuspended in 100 μl of distilled water. These 100 μl containing the magnetotactic bacteria are then redeposited on nonmagnetic absorbent paper which itself is inserted into a capsule that is placed in the magnetometer in order to carry out the magnetic measurements. […]
Cultures of Magnetospirillum magneticum were prepared as described in example 1. […] The cultures in suspension were placed at ambient temperature (approximately 25° C.) and the growth of the bacteria over time was monitored by measuring O.D. at the wavelength of 565 nanometers.
The bacteria were cultured for 12 days in a tube and the absorbance over the whole of the spectrum ranging from 400 to 700 nanometers was measured, respectively, (i) on the second day (D2) after inoculation, (ii) on the third day (D3) after inoculation, (iii) on the fourth day (D4) after inoculation, (iv) on the seventh day (D7) after inoculation, (v) on the eighth day (D8) after inoculation and (vi) on the ninth day (D9) after inoculation. […]

Consider `O=C1O[C@H]([C@@H](O)CO)C(O)=C1O` [ascorbic acid], for which the “effect on bacterial growth compared with rhodamine B” value in assay [1] is listed as “similar”. In assay [1] (400 μM), the “effect on cell growth at high concentration” value is reported as “rather unfavorable”. The “effect on the growth of the magnetotactic bacteria (absorbance compared with cultures without the agent)” value in assay [1] (0.4-400 μM, D2 to D9, 10 ml tubes) was “stimulates the growth”. In assay [1] (after 4 days of culture), the “concentration giving the most pronounced effect on growth” value stood at 0.4 µM. Moreover, in assay [1] (all concentrations except 400 μM), the “growth curves (fitted absorption, first 7 days) relative to bacteria cultured in the absence of the agent” value was “above”. Further, the “period of culture during which the effects are greatest” value in assay [1] (exponential growth phase) is recorded as “first four days”. For the same compound, the “concentration range of stimulated magnetosome production compared with rhodamine B” value in assay [2] is reported as “wider concentration range”.
